Key:
Assay in all cases: Post-emergence efficacy of compounds of Formula (I) (B1), glasshouse
Type in all cases: in vivo
[1] = tested on: Digitaria sanguinalis (DIGSA); conditions: Application Rate 500 g/Ha, evaluated after 13 days; for pest or weed control at 500 g/ha: Digitaria sanguinalis, post-emergence, 312 h, read-out: Control of DIGSA after post-emergence application (100=total damage to plant; 0=no damage to plant)
Method: (§1) Seeds of a variety of test species were sown in standard Iaom-based soil in pots:— Ipomoea hederacea (IPOHE), Euphorbia heterophylla (EPHHL), Chenopodium album (CHEAL), Amaranthus palmeri (AMAPA), Lolium perenne (LOLPE), Digitaria sanguinalis (DIGSA), Eleusine indica (ELEIN), Echinochloa crus-galli (ECHCG), Setaria faberi (SETFA). After cultivation for 14 days (post-emergence) under controlled conditions in a glasshouse (at 24/16° C., day/night; 14 hours light; 65% humidity), the plants were sprayed with an aqueous spray solution derived from the dissolution of the technical active ingredient Formula (I) in a small amount of acetone and a special solvent and emulsifier mixture referred to as IF50 (11.12% Emulsogen EL360 TM+44.44% N-methylpyrrolidone+44.44% Dowanol DPM glycol ether), to create a 50 g/I solution which was then diluted to required concentration using 0.25% or 1% Empicol ESC70 (Sodium lauryl ether sulphate)+1% ammonium sulphate as diluent. The delivery of the aqueous spray solution was via a laboratory track sprayer which delivered the aqueous spray composition at a rate of 200 litres per hectare, using a flat fan nozzle (Teejet 11002VS) and an application volume of 200 litre/ha (at 2 bar).
(§2) The test plants were then grown in a glasshouse under controlled conditions (at 24/16° C., day/night; 14 hours light; 65% humidity) and watered twice daily. After 13 days the test was evaluated (100=total damage to plant; 0=no damage to plant).

[2] = tested on: Lolium perenne (LOLPE); conditions: Application Rate 500 g/Ha, evaluated after 13 days; for pest or weed control at 500 g/ha: Lolium perenne, post-emergence, 312 h, read-out: Control of LOLPE after post-emergence application (100=total damage to plant; 0=no damage to plant)
Method: as §1, §2

[3] = tested on: Setaria faberi (SETFA); conditions: Application Rate 500 g/Ha, evaluated after 13 days; for pest or weed control at 500 g/ha: Setaria faberi, post-emergence, 312 h, read-out: Control of SETFA after post-emergence application (100=total damage to plant; 0=no damage to plant)
Method: as §1, §2

[4] = tested on: Eleusine indica (ELEIN); conditions: Application Rate 500 g/Ha, evaluated after 13 days; for pest or weed control at 500 g/ha: Eleusine indica, post-emergence, 312 h, read-out: Control of ELEIN after post-emergence application (100=total damage to plant; 0=no damage to plant)
Method: as §1, §2

[5] = tested on: Echinochloa crus-galli (ECHCG); conditions: Application Rate 500 g/Ha, evaluated after 13 days; for pest or weed control at 500 g/ha: Echinochloa crus-galli, post-emergence, 312 h, read-out: Control of ECHCG after post-emergence application (100=total damage to plant; 0=no damage to plant)
Method: as §1, §2

[6] = tested on: Euphorbia heterophylla (EPHHL); conditions: Application Rate 500 g/Ha, evaluated after 13 days; for pest or weed control at 500 g/ha: Euphorbia heterophylla, post-emergence, 312 h, read-out: Control of EPHHL after post-emergence application (100=total damage to plant; 0=no damage to plant)
Method: as §1, §2

[7] = tested on: Ipomoea hederacea (IPOHE); conditions: Application Rate 500 g/Ha, evaluated after 13 days; for pest or weed control at 500 g/ha: Ipomoea hederacea, post-emergence, 312 h, read-out: Control of IPOHE after post-emergence application (100=total damage to plant; 0=no damage to plant)
Method: as §1, §2

[8] = tested on: Chenopodium album (CHEAL); conditions: Application Rate 500 g/Ha, evaluated after 13 days; for pest or weed control at 500 g/ha: Chenopodium album, post-emergence, 312 h, read-out: Control of CHEAL after post-emergence application (100=total damage to plant; 0=no damage to plant)
Method: as §1, §2

[9] = tested on: Amaranthus palmeri (AMAPA); conditions: Application Rate 500 g/Ha, evaluated after 13 days
Method: as §1, §2

SMILES	pest or weed control at 500 g/ha [1] [%]	pest or weed control at 500 g/ha [2] [%]	pest or weed control at 500 g/ha [3] [%]	pest or weed control at 500 g/ha [4] [%]	pest or weed control at 500 g/ha [5] [%]	pest or weed control at 500 g/ha [6] [%]	pest or weed control at 500 g/ha [7] [%]	pest or weed control at 500 g/ha [8] [%]	Control of LOLPE after post-emergence application (100=total damage to plant; 0=no damage to plant) [2]	Control of IPOHE after post-emergence application (100=total damage to plant; 0=no damage to plant) [7]	pest or weed control at 500 g/ha ([9]; Amaranthus palmeri, post-emergence, 312 h, read-out: Control of AMAPA after post-emergence application (100=total damage to plant; 0=no damage to plant)) [%]	Control of DIGSA after post-emergence application (100=total damage to plant; 0=no damage to plant) [1]	Control of SETFA after post-emergence application (100=total damage to plant; 0=no damage to plant) [3]	Control of AMAPA after post-emergence application (100=total damage to plant; 0=no damage to plant) [9]	Control of ELEIN after post-emergence application (100=total damage to plant; 0=no damage to plant) [4]	Control of ECHCG after post-emergence application (100=total damage to plant; 0=no damage to plant) [5]	Control of EPHHL after post-emergence application (100=total damage to plant; 0=no damage to plant) [6]	Control of CHEAL after post-emergence application (100=total damage to plant; 0=no damage to plant) [8]
COc1cc(-c2cc[n+](CCCS(=O)(=O)[O-])nc2)ncn1 [Compound 1.019]	100	30	100	90	70	100	60	100	–	–	–	–	–	–	–	–	–	–
O=C(O)CC[n+]1ccc(-c2ncccn2)cn1.[Cl-] [Compound 1.010, 3-(4-pyrimidin-2-ylpyridazin-1-ium-1-yl)propanoic acid chloride]	100	–	100	100	100	100	–	100	90	40	–	–	–	–	–	–	–	–
Nc1ccnc(-c2cc[n+](CCC(=O)O)nc2)n1 [Compound 1.016]	100	70	100	100	100	90	30	90	–	–	–	–	–	–	–	–	–	–
Cc1ccc(-c2cc[n+](CCS(=O)(=O)[O-])nc2)nn1 [Compound 1.014]	100	90	100	90	80	100	–	100	–	–	100	–	–	–	–	–	–	–
O=C(O)CC[n+]1ccc(-c2ncccn2)cn1.O=C([O-])C(F)(F)F [Compound 1.023, 3-(4-pyrimidin-2-ylpyridazin-1-ium-1-yl)propanoic acid 2,2,2-trifluoroacetate]	–	–	–	–	–	–	–	–	–	30	–	100	100	100	100	100	100	80
Cc1cc(C)nc(-c2cc[n+](CCC(=O)[O-])nc2)n1 [Compound 1.017]	100	60	100	100	70	80	50	100	–	–	–	–	–	–	–	–	–	–
Cc1cnc(-c2cc[n+](CCS(=O)(=O)[O-])nc2)nc1 [Compound 1.009]	100	80	100	100	100	70	30	100	–	–	–	–	–	–	–	–	–	–
